Data as given in patent publication US20250011788A1, “NUCLEIC ACID INTERFERENCE PHARMACEUTICAL COMPOSITION, AND DRUG FOR TREATING COLORECTAL CANCER, GASTRIC CANCER, AND PROSTATE CANCER” (SIRNAOMICS BIOPHARMACEUTICALS (SUZHOU) CO., LTD., priority 2022, published 2025).
d = 2'-deoxy (DNA); r = 2'-OH (RNA)

Experiments:
RM-1 cells tumor graft = experiment: Mouse subcutaneous tumor graft model of prostate cancer RM-1 cells; assay type: in vivo, C57BL/6J mice
Method: Next, another tumor graft model was established to further validate the pharmacodynamic evaluation of candidate drug on the growth of mouse tumor graft of mouse prostate cancer RM-1 cells. The nano drug formulation was prepared by the method described above. RM-1 subcutaneous tumor-bearing mice were modeled as follows: C57BL/6J mice were each inoculated subcutaneously with 5×10^6 cells. The mice were grouped on the basis of random numbers when the mean tumor volume reached about 100-120 mm^3. The dosing regimen was as follows: for STP500, 3 mg/kg, intravenously administered (i.v.) via the tail vein, every 2 days (Q2D); for The positive control (docetaxel), 15 mg/kg, intraperitoneally administered (i.p.), every week (QW). After the first dose, the weight and tumor volume of the mice were recorded every 2 days, and the tumor volume was calculated by V=0.5×(Dmax×Dmin^2), where Dmax refers to the longest diameter of the tumor, and Dmin refers to the shortest diameter of the tumor. A tumor volume curve was drawn at the end of the experiment. The mice were euthanized, and tumors were removed and weighed. TGItw (percentage change in Tumor weight) was calculated by:
(§1) [formula] • Mean TWtreat: the mean tumor weight of the mice in the treatment group at the end of treatment; • Mean TWvehicle: the Mean tumor weight of mice in the Vehicle group at the end of treatment.

[1] = test system: MKN45 cells tumor xenograft; experiment: Mouse subcutaneous tumor xenograft model of gastric cancer MKN45 cells; assay type: in vivo, BALB/c-Nude mice
Method: Next, another tumor graft model was established to further validate the pharmacodynamic evaluation of candidate drug on the growth of mouse tumor xenograft of human gastric cancer MKN45 cells. The nano drug formulation was prepared by the method described above. MKN45 subcutaneous tumor-bearing mice were modeled as follows: BALB/c-Nude mice were each inoculated subcutaneously with 5×10^6 MKN45 cells. Randomization was performed when the mean tumor volume reached about 100-120 mm^3. […] After the first dose, the weight and tumor volume of the mice were recorded every 2 days, and the tumor volume was calculated by V=0.5×(Dmax×Dmin^2), where Dmax refers to the longest diameter of the tumor, and Dmin refers to the shortest diameter of the tumor. A tumor volume curve was drawn at the end of the experiment. The mice were euthanized, and tumors were removed and weighed. TGItw (percentage change in tumor weight) was calculated by:
as §1

MC38 cells tumor graft = experiment: Mouse subcutaneous tumor graft model of colorectal cancer MC38 cells; assay type: in vivo, C57BL/6 mice; details: STP500 2 mg/kg i.v. Q2D, siMD8 1 mg/kg i.v. Q2D, Sorafenib 30 mg/kg p.o. QD
Source text: Based on the data from previous in-vitro experiments, two siRNAs (MD8-21-hm5# and TF1-25-hm5# in this example) were mixed at a mass ratio of 1/1, and encapsulated the mixture into the HKP(+H) (histidine-lysine polymer) carrier through patented PNP technology to prepare the nanoparticle formulation (the nano drug formulation STP500 prepared in Example 8). The tumor growth inhibitory activity of the candidate siRNA sequence was validated by a mouse tumor xenograft model (colorectal cancer cells MC38).
C57BL/6 mice were each inoculated subcutaneously with 1×10^6 MC38 cells per mouse, and randomized groups when the mean tumor volume reached about 100 mm^3. The dosing regimen was as follows: for STP500, 2 mg/kg, intravenously administered (i.v.) via the tail vein, every 2 days (Q2D); for Small nucleic acid monotherapy MD8 (MyD88 siRNA, also known as siMyD88), 1 mg/kg, intravenously administered (i.v.) via the tail vein, every 2 days (Q2D); and for the positive control group (Sorafenib), 30 mg/kg, intragastrically administered p.o., every day (QD). After the first dose, the weight and tumor volume of the mice were recorded every 2 days, and the tumor volume was calculated by V=0.5×(Dmax×Dmin^2), where Dmax refers to the longest diameter of the tumor, and Dmin refers to the shortest diameter of the tumor. […] TGItw (percentage change in tumor weight) was calculated by: […]

MyD88 gene (mRNA) [2] = experiment: EC50 of MyD88 mRNA knockdown in human-derived cell lines; assay type: cell-based
Method: Then, for these candidate siRNA sequences, multiple concentration gradients were set in human-derived cell lines and mouse-derived cell lines respectively for cell transfection, and their EC50 values (half-maximal effective concentration) were obtained. […] In the mouse-derived cell lines, EC50<10 nM only occurs for MD8-21-hm5# in mouse prostate cancer (RM-1) cells and colorectal cancer (MC38) cells as well as MD8-21-hm4# in colorectal cancer (MC38) cells. Therefore, based on the above data, the human-mouse homologous sequence MD8-21-hm5# is preferably used for pharmacodynamic evaluation of animal models in vivo.

MyD88 gene (mRNA) [3] = experiment: In vitro screening of MyD88 siRNA: MyD88 mRNA silencing by RT-PCR; assay type: cell-based, human; details: 100 nM siRNA; for target gene silencing effect in colorectal cells: lipo2000, 20-24 h
Method: Some cell lines screened out in Example 2 were used for primary siRNA screening, including a breast cancer cell line (MDA-MB-231), a neuroglioma cell line (U87-MG), a human brain glioma cell line (T98G), a human colorectal cancer epithelial cell line (DLD-1) and a human colon cancer cell line (RKO). Specifically, the MyD88 siRNA sequence in Table 1 was transfected into the above five cells by lipo2000, and the transfection concentration was 100 nM (calculated by siRNA). After transfection for 20-24 h, the total RNA of the cells was extracted, and the mRNA expression level of the target gene MyD88 was detected by RT-PCR technology. […] The three specifical sequences are MD8-21-hm3# (NTS00025-21-hm3# in FIG. 3), MD8-21-hm4# (NTS00025-21-hm4# in FIG. 3) and MD8-21-hm5# (NTS00025-21-hm5# in FIG. 3).

DLD-1 cells = experiment: In vitro cell migration (wound healing/scratch) test; assay type: cell-based, human; details: 96 h, 100 and 10 nM, dose-dependent
Method: On the day before the initiation of the experiment, a 12-well plate was prepared, a 2-well culture-insert for wound healing (ibidi, 80209) was placed in the center of the culture dish, and cells were inoculated into the 2-well culture-insert at 1×10^4 cells per well and cultured overnight. On the second day, siMyD88 was transfected into the cells at […] and 10 nM, and the transfection experiment was completed. After transfection for 24 h, the 2-well culture-insert for wound healing was gently removed with tweezers (to avoid cell shedding), and the 12-well plate was added with a medium containing 1% serum to continue cell culture. At the same time, a photograph was taken under the microscope as the 0 h cell migration data. The culture was continued for 24 h and 96 h, and the cell migration was recorded under the microscope. The cell migration was determined by comparing the wound distance at the initial scratch (0 h) versus at the later observation points (24 h and 96 h).

MyD88 protein = experiment: Western Blot knockdown of target gene protein in cell lines (MyD88); assay type: cell-based, human and mouse cell lines; details: MDA-MB-231, RKO and RM-1 cells; 100 nM and 10 nM, 48 h
TGF-β1 protein = experiment: Western Blot knockdown of target gene protein in cell lines (TGF-β1); assay type: cell-based, human; details: RKO cell line; 100 nM and 10 nM, 48 h
Method: The target gene knockdown effects of siRNA sequences on the targets TGF-β1 and MyD88 at the cellular level were evaluated by Western Blot. The procedures were as follows: on The day before the initiation of the experiment, the cells were inoculated in a 6-well plate at 1×10^6 cells per well, and cultured overnight. On the second day, siMyD88 and siTF1 were transfected into the cells at 100 nM and 10 nM respectively. After transfection for 48 h, the cells were collected and transferred to centrifuge tubes. RIPA lysate was added to each tube to extract total cell protein, and then the total cell protein concentration was quantified by a BCA protein quantification method. Western Blot analysis was performed on all protein samples using the following antibodies: MyD88 primary antibody (ab219413, 1:1000), TGF-β1 primary antibody (ab215715, 1:1000), Goat Anti-Rabbit IgG H&L (HRP) (ab205718, 1:10000). After the experiment, the ChemiDoc™ MP Imaging System (BIO-RAD) was used to capture the results.
Western Blot analysis of protein expression in candidate MyD88 siRNA (MD8-21-hm5#) plus TGF-β1 siRNA (TF1-21-h1#) in three cell lines in in-vitro human breast cancer cell line (MDA-MB-231) (FIG. 5A), human colon cancer cell line (RKO) (FIG. 5B) and mouse prostate cancer (RM-1) cells (FIG. 5C).

Compound: CC(=O)O[C@@]12CO[C@@H]1C[C@H](O)[C@@]1(C)C(=O)[C@H](O)C3=C(C)[C@@H](OC(=O)[C@H](O)[C@@H](NC(=O)OC(C)(C)C)c4ccccc4)C[C@@](O)([C@@H](OC(=O)c4ccccc4)[C@H]21)C3(C)C [Docetaxel]
- effect on the weight of mice (RM-1 cells tumor graft; STP500 3 mg/kg Q2D, Docetaxel 15 mg/kg i.p. QW): no significant difference
- growth of prostate cancer tumor graft (RM-1 cells tumor graft; after 8 doses, compared with control group): did not show a tumor-killing effect
- Tumor weight, Mean (RM-1 cells tumor graft; end of treatment, STP500 3 mg/kg i.v. Q2D, Docetaxel 15 mg/kg i.p. QW): 4.72 g
- TGItw (tumor growth inhibition by tumor weight) (RM-1 cells tumor graft; versus Vehicle, STP500 3 mg/kg i.v. Q2D, Docetaxel 15 mg/kg i.p. QW): −4%

Compound: O=C1[O][Pt]2([NH][C@@H]3CCCC[C@H]3[NH]2)[O]C1=O [Oxaliplatin]
- growth of gastric cancer tumor graft ([1]; after 7 doses, compared with control group): better tumor inhibition effect
- Tumor weight, Mean ([1]; end of treatment, STP500 3 mg/kg i.v. Q2D, Oxaliplatin 7.5 mg/kg i.p. QD): 0.16 g
- TGItw (tumor growth inhibition by tumor weight) ([1]; versus Vehicle, STP500 3 mg/kg i.v. Q2D, Oxaliplatin 7.5 mg/kg i.p. QD): 58%

Compound: CNC(=O)c1cc(Oc2ccc(NC(=O)Nc3ccc(Cl)c(C(F)(F)F)c3)cc2)ccn1 [Sorafenib]
- Tumor weight, Mean (MC38 cells tumor graft; end of treatment): 0.3571 g
- TGItw (tumor growth inhibition by tumor weight) (MC38 cells tumor graft; versus Vehicle): 12.28%

Compound: MD8-21-h5#: MyD88 siRNA; sense GCAUACACACGUUUUUCUAdTdT (SEQ ID NO: 9), antisense UAGAAAAACGUGUGUAUGCdTdT (SEQ ID NO: 10) (sense GCAUACACACGUUUUUCUATT; antisense UAGAAAAACGUGUGUAUGCTT; sugars from the 5' end r19 d2, backbone not given here)
- effect in EC50 comparison (MyD88 gene (mRNA) [2]): relatively good
- ranking of silencing effect among human-derived sequences (MyD88 gene (mRNA) [3]; five human cell lines): best effect

Compound: MD8-21-hm3#: MyD88 siRNA; sense CAGAGCAAGGAAUGUGACUdTdT (SEQ ID NO: 27), antisense AGUCACAUUCCUUGCUCUGdTdT (SEQ ID NO: 28) (sense CAGAGCAAGGAAUGUGACUTT; antisense AGUCACAUUCCUUGCUCUGTT; sugars from the 5' end r19 d2, backbone not given here)
- target gene silencing effect in colorectal cells (MyD88 gene (mRNA) [3]): about 85%

Compound: MD8-21-hm4#: MyD88 siRNA; sense GCAAGGAAUGUGACUUCCAdTdT (SEQ ID NO: 29), antisense UGGAAGUCACAUUCCUUGCdTdT (SEQ ID NO: 30) (sense GCAAGGAAUGUGACUUCCATT; antisense UGGAAGUCACAUUCCUUGCTT; sugars from the 5' end r19 d2, backbone not given here)
- target gene silencing effect in colorectal cells (MyD88 gene (mRNA) [3]): about 85%

Compound: MD8-21-hm5#: MyD88 siRNA; sense GAAUGUGACUUCCAGACCAdTdT (SEQ ID NO: 31), antisense UGGUCUGGAAGUCACAUUCdTdT (SEQ ID NO: 32) (sense GAAUGUGACUUCCAGACCATT; antisense UGGUCUGGAAGUCACAUUCTT; sugars from the 5' end r19 d2, backbone not given here)
- inhibitory effect on in vitro migration ability (DLD-1 cells): significant inhibitory effect
- effect in EC50 comparison (MyD88 gene (mRNA) [2]): relatively good
- target gene silencing effect in colorectal cells (MyD88 gene (mRNA) [3]): about 85%
- knockdown effect on MyD88 protein (MyD88 protein): obvious knockdown effect

Compound: TF1-21-h1#: TGF-β1 siRNA; sense GCAGAGUACACACAGCAUAdTdT (SEQ ID NO: 37), antisense UAUGCUGUGUGUACUCUGCdTdT (SEQ ID NO: 38) (sense GCAGAGUACACACAGCAUATT; antisense UAUGCUGUGUGUACUCUGCTT; sugars from the 5' end r19 d2, backbone not given here)
- knockdown effect on TGF-β1 protein (TGF-β1 protein): obvious knockdown effect
